Reference: the METLIN SMRT retention time set (Domingo-Almenara et al. 2019)

Test: gradient 5% acetonitrile 3 min, to 50% in 2 min, to 85% in 15 min, held 3 min, 100 µL/min
Conditions: column: Zorbax Extend-C18 2.1 x 50 mm; eluents: water / acetonitrile, 0.1% formic acid
In short: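 Retention times come from adduct peaks that were picked computationally and then checked by hand. The standards, pure and pooled in mixtures of ~100 molecules, were run on a Zorbax Extend-C18 column (2.1 × 50 mm, 1.8 μm) at 100 μL/min with water and acetonitrile, each with 0.1% formic acid. Detection was by quadrupole time-of-flight mass spectrometry in positive and negative ionization mode, with a dead volume of 40 μL and a dwell volume of 900 μL.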

Structure (SMILES)	RP-LC retention time [s]
COc1ccc(-c2noc(C3CC(=O)N(c4ccc(C)cc4)C3)n2)cc1OC (stereo not drawn)	885
CCc1cccc(NC(=O)C2CCCN(S(=O)(=O)c3cc(-c4noc(C)n4)cs3)C2)c1 (stereo not drawn)	870
COCCCNC(=O)c1csc(-c2cnccn2)n1	625
COc1cccc(-c2noc(CN3C(=O)COc4cc(Cl)ccc43)n2)c1OC	1020
Cc1cccc(NC(=O)COc2cccc3c(=O)n(C)ccc23)c1	798
CCc1ccccc1N1C(=O)CN(S(C)(=O)=O)CC1(C)C(=O)NCc1ccccc1 (stereo not drawn)	804
O=C(NCCc1noc(C2CC2)n1)C1CCC1	651
CC(C)CCNC(=O)C1CCCN(c2nc3ccsc3c(=O)n2-c2ccc(F)cc2)C1 (stereo not drawn)	884
Cc1cc(=O)n(CC(=O)Nc2ccc(Br)cc2)c(N2CCCCC2)n1	716
CCN1CCC2(CC1)N=C(c1ccccc1)CC(c1cc(Cl)ccc1O)N2 (stereo not drawn)	621
O=c1c2cc(-c3ccc4c(c3)OCO4)nn2ccn1Cc1nc(-c2cccc(Cl)c2)no1	1080
CC(C)NC(=O)Cn1ccn2nc(-c3ccc(F)cc3)c(CO)c2c1=O	682
CN(CCc1noc(COc2ccccc2)n1)C(=O)Nc1ccccc1C(F)(F)F	953
CCN(CC)CCOc1ccccc1/C=C/c1noc2ccccc12	724
COc1cc(C)c(C)cc1S(=O)(=O)N1CCN(c2ccc(-c3cccnc3)nn2)CC1	649
O=C(Nc1ccc2c(c1)C(=O)Nc1ccccc1O2)Oc1ccccc1	813
Cc1cc2c(cc1S(=O)(=O)N1CCCC1C(=O)Nc1ccc(F)c(Cl)c1)OCC(=O)N2 (stereo not drawn)	965
COC(=O)c1cc2c(=O)n(-c3nc(-c4ccc(Cl)cc4)cs3)ccc2nc1C	1420
CN(C)c1cc(C(=O)NC2CC2)c2cc(F)ccc2n1	722
CC(=O)N1c2ccc(S(=O)(=O)N3CCCCC3)cc2CC1C(=O)NCCCc1ccccc1 (stereo not drawn)	917
CCn1ccc2cc(S(=O)(=O)N3CCC(C(=O)N4CCN(c5ccccn5)CC4)CC3)ccc21	674
Cc1nc(-c2cc(S(=O)(=O)NCC(=O)N3CCN(c4cccc(Cl)c4)CC3)c(C)s2)no1	829
Cc1cc(C)cc(NC(=O)N2CCCC(C)(C(=O)NCc3ccccc3C)C2)c1 (stereo not drawn)	897

Structure (SMILES)	RP-LC retention time [s]
CSc1cccc(NC(=O)C2CCN(C(=O)C3Sc4ccccc4NC3=O)CC2)c1 (stereo not drawn)	814
COc1ccc(S(=O)(=O)N2CC3CN(C(=O)Cc4cccc(F)c4)CC(C2)O3)cc1	825
O=S(=O)(c1cccc(F)c1)N1CCC(Cc2nncn2-c2ccccc2)C1 (stereo not drawn)	752
COc1ccccc1CNS(=O)(=O)c1ccc(-c2c(C)noc2C)cc1	922
COc1ccc(-c2nc(-c3cn(Cc4ccccc4)nn3)no2)cc1OC	892
CCC1CCCCN1S(=O)(=O)c1cc(-c2nnc(C)o2)co1 (stereo not drawn)	857
COC(=O)c1ccccc1NC(=O)c1nnn(-c2cc(C)ccc2Cl)c1C	1230
COc1ccc(NC(=O)CN2C(=O)c3ccccc3Sc3ncccc32)cc1	758
Cc1oc2ncn(CCC(=O)N3CCN(c4ccccn4)CC3)c(=O)c2c1C	573
CCc1noc(NC(C)=O)c1-c1ccc(OC)c(S(=O)(=O)NCc2cccc(OC)c2)c1	786
COCC(C)(O)CNS(=O)(=O)c1ccc(F)cc1C (stereo not drawn)	674
COc1ccc2c(c1)C1(CCN(C(=O)Cc3ccc(Cl)cc3)C1)C(=O)N2C (stereo not drawn)	873
COCCOc1ccc(C(=O)N2CCNC(=O)C2CC(=O)OC2CCCCC2)cc1 (stereo not drawn)	720
O=C(c1c(F)cccc1F)N1CCc2nc(-c3ccccc3)ncc2C1	909
COc1ccc(C(=O)NC(CC(C)C)C(=O)Nc2nc3ccccc3[nH]2)cc1 (stereo not drawn)	725
Cc1ccc(NC(=O)Cn2c(=O)n(-c3ccccc3)c(=O)c3c2cc(C)n3C)cc1	827
Cc1ccc(NC(=O)C2CCCN2S(=O)(=O)c2cc3c(cc2C)NC(=O)C(C)O3)cc1Cl (stereo not drawn)	892
CCOc1ccc(CC(=O)N2CCN(S(=O)(=O)c3cc4c5c(c3)CCC(=O)N5CCC4)CC2)cc1	823
CS(=O)(=O)N1CCC(C(=O)Nc2ccccc2Cl)Oc2ccccc21 (stereo not drawn)	935
COc1cc(NC(=O)Cn2nc3n(c2=O)CCCCC3)cc(OC)c1OC	659
CC1CSc2ccc(S(=O)(=O)N3CCN(c4ccccn4)CC3)cc2NC1=O (stereo not drawn)	647
CCN(CC)S(=O)(=O)c1ccc2c(c1)N(CC(=O)NCc1cccs1)C(=O)C1CCCCN21 (stereo not drawn)	949

Next, values leading:

RP-LC retention time [s]	Structure (SMILES)
666	COc1ccc2[nH]c(=O)c(CCC(=O)Nc3ccc(OC)c(OC)c3)cc2c1
758	CSc1cccc(NC(=O)C2CCN(c3cnc4nc(C)c(C)nc4c3)CC2)c1
1260	CCN(C(=O)c1ccccc1C)c1nc(-c2ccccc2)cs1
910	CCN1C(=O)COc2ccc(-c3csc(NC(=O)C(C)(C)C)n3)cc21
650	Cc1ccc2nc3c(c(C(=O)NCC(C)C)c2c1)CCC3
942	O=C(Cc1csc2nc(-c3cccc(Cl)c3)cn12)Nc1ccc(F)cc1F
985	CCCn1c(=O)sc2cc(S(=O)(=O)N3CCC(C(=O)Nc4cc(C)ccc4C)CC3)ccc21
615	CCNC(=O)C(=O)NCC(c1ccc2c(c1)CCCN2C)N1CCCC1 (stereo not drawn)
650	Cc1ccc(C(N)=Nc2ccccc2)cc1
912	Cc1ccc(NC(=O)CN2C(=O)CCCc3cc(S(=O)(=O)N4CCCC4)ccc32)c(Cl)c1
940	COc1ccc(-c2nc(-c3cn(Cc4ccc(F)cc4)nn3)no2)c(OC)c1
818	Cc1cc(C2CCCN2C(=O)Nc2ccc(C)c(F)c2)no1 (stereo not drawn)
917	CCc1ccc(NC(=O)Cn2nc(C(=O)N3CCCC3)c3ccccc32)cc1
897	CSc1ccc(CCNC(=O)Cn2c(=O)c3cccn3c3ccc(F)cc32)cc1
705	NC(=O)C1CCN(C(=O)CN2c3ccc(Br)cc3-c3ccccc3S2(=O)=O)CC1
1000	CCc1ccc(OCc2nc(CCN(C)C(=O)Cc3cccs3)no2)cc1
843	COc1cc(-c2cccc(Cl)c2)nc2ccc(NC(=O)Cc3cccs3)cc12
848	O=C(Cn1nc2c3sc(N4CCCCC4)nc3ncn2c1=O)Nc1ccc(Br)cc1
733	CC1CCN(CCCNS(=O)(=O)c2ccccc2-c2nc(-c3ccccc3)no2)CC1
601	Cc1ccc2c(Nc3ccc(F)c(Cl)c3)c(C(=O)N3CCOCC3)cnc2n1
707	COC(=O)c1nn(-c2ccc(C)cc2)c2c(=O)n(C)cnc12
584	COCc1cc(=O)n(CC(=O)Nc2ccc(C)cc2C)c(N)n1

RP-LC retention time [s]	Structure (SMILES)
740	COC(=O)c1c(NCc2ccco2)c2cccc(Cl)c2[nH]c1=O
854	Fc1ccc(C2Cn3nnc(-c4nc(-c5ccccn5)no4)c3CO2)cc1 (stereo not drawn)
1010	CCn1cc(-c2nc(C)c(C(=O)Nc3ccc(F)cc3F)s2)c2cccnc21
612	CCn1cc(CCNC(=O)C(C)C)c2cccnc21
647	CCn1cc(CCNC(=O)c2cccnc2SC)c2cccnc21
617	Cn1cc(CCN2CCC(C(=O)NCc3ccccc3Cl)CC2)c2cccnc21
787	O=C1NCCc2c(OCC(=O)N3N=C(c4cccs4)CC3c3ccc(F)cc3)cccc21 (stereo not drawn)
904	CC(C)c1nnc(-c2ccc(S(=O)(=O)NC3CCCCC3)o2)o1
666	COc1cccc2c1C(=O)c1c(O)c3c(c(O)c1C2=O)C[C@@](O)(C(C)=O)C[C@@H]3OC1CC(N(C)C)C(O)C(C)O1 (stereo partly drawn)
615	CCNC(=O)c1cn(-c2ccc(NC(=O)C3CC3)cn2)cn1
1020	O=[N+]([O-])c1ccc(CSc2nc3ccccc3o2)cc1
701	Cc1ccn2cc(-c3ccc(NS(=O)(=O)c4ccc(I)cc4)cc3)nc2n1
720	CCCCN(Cc1nc2nc(C)cc(C)n2n1)C(=O)c1ccco1
596	COCCn1nc2n(c1=O)CCN(C(=O)c1cc(C3CC3)[nH]n1)CC2
850	O=C(NCC1CCCO1)N1CCN(c2nc3ccccc3n(Cc3ccccc3)c2=O)CC1 (stereo not drawn)
1160	O=C(NC1CCCCCC1)C1CCCN(c2ncc(-c3cccc(F)c3)cn2)C1 (stereo not drawn)
575	COc1ccc(CNC(=O)c2cc(NC(C)=O)cc3nc(C)ccc23)cc1OC
706	CCOC(=O)c1c(C)n(CCNC(C)=O)c2cc(Br)c(OC)cc12
889	Cc1sc2ccn(CC(C)C)c(=O)c2c1C(=O)NCc1ccco1
1010	CC(C)c1noc(-c2ccc(-n3cnc(C(=O)N4CCc5ccccc5C4)c3)nc2)n1
806	COc1ccc(-c2cc(C(=O)N3CCN(c4c(C)n(C)c(=O)n(C)c4=O)CC3)c3ccccc3n2)cc1
